Columns and labels:
Settings in all cases: incubation time: 72 h
MDA-MB-453 [1] = experiment: normalised response (% of control), CellTox Green; higher = less cell death (100 = DMSO, 0 = benzethonium chloride kill control)
Procedure, shortened: (§1)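 Every value is a normalised signal taken at one concentration of a dilution series. Compound was placed in 384-well plates at 5 concentrations in 10-fold steps over a compound-specific 10,000-fold range, and 20 µl of breast cancer cell suspension was seeded onto it. After 72 h, CellTox Green fluorescence (485/520 nm) was measured first and CellTiter-Glo luminescence second, following 10 min at room temperature. Each plate was scaled to 0.1 % DMSO (100) and a positive kill control (0).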

BT-474 [2] = experiment: as above
Procedure, shortened: as §1

CAL-120 [3] = experiment: as above
Procedure, shortened: as §1

HCC1599 [4] = experiment: as above
Procedure, shortened: as §1

HDQ-P1 [5] = experiment: as above
Procedure, shortened: as §1

Hs578T [6] = experiment: as above
Procedure, shortened: as §1

CAL-51 [7] = experiment: as above
Procedure, shortened: as §1

CAL-85-1 [8] = experiment: as above
Procedure, shortened: as §1

MDA-MB-231 [9] = experiment: as above
Procedure, shortened: as §1

CAL-148 [10] = experiment: as above
Procedure, shortened: as §1

MCF-10A [11] = experiment: as above
Procedure, shortened: as §1

BT-549 [12] = experiment: as above
Procedure, shortened: as §1

DU-4475 [13] = experiment: as above
Procedure, shortened: as §1

HCC1143 [14] = experiment: as above
Procedure, shortened: as §1

MDA-MB-468 [15] = experiment: as above
Procedure, shortened: as §1

MDA-MB-436 [16] = experiment: as above
Procedure, shortened: as §1

HCC1937 [17] = experiment: as above
Procedure, shortened: as §1

MFM-223 [18] = experiment: as above
Procedure, shortened: as §1

MDA-MB-453 [19] = experiment: normalised response (% of control), CellTiter-Glo; higher = more viable cells (100 = DMSO, 0 = benzethonium chloride kill control)
Procedure, shortened: as §1

BT-474 [20] = experiment: as above
Procedure, shortened: as §1

CAL-120 [21] = experiment: as above
Procedure, shortened: as §1

HCC1599 [22] = experiment: as above
Procedure, shortened: as §1

HDQ-P1 [23] = experiment: as above
Procedure, shortened: as §1

Hs578T [24] = experiment: as above
Procedure, shortened: as §1

CAL-51 [25] = experiment: as above
Procedure, shortened: as §1

CAL-85-1 [26] = experiment: as above
Procedure, shortened: as §1

MDA-MB-231 [27] = experiment: as above
Procedure, shortened: as §1

CAL-148 [28] = experiment: as above
Procedure, shortened: as §1

MCF-10A [29] = experiment: as above
Procedure, shortened: as §1

BT-549 [30] = experiment: as above
Procedure, shortened: as §1

DU-4475 [31] = experiment: as above
Procedure, shortened: as §1

SK-BR-3 [32] = experiment: as above
Procedure, shortened: as §1

HCC1143 [33] = experiment: as above
Procedure, shortened: as §1

MDA-MB-468 [34] = experiment: as above
Procedure, shortened: as §1

MDA-MB-436 [35] = experiment: as above
Procedure, shortened: as §1

HCC1937 [36] = experiment: as above
Procedure, shortened: as §1

MFM-223 [37] = experiment: as above
Procedure, shortened: as §1

MDA-MB-453 [38] = experiment: normalised response (% of control), CellTiter-Glo; higher = more viable cells (100 = DMSO, 0 = benzethonium chloride kill control); remark: listed apart in the source
Protocol: (§2)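 DSRT, 72 h incubation, CellTox Green / CellTiter-Glo readout. Signal is normalised to DMSO and benzethonium chloride controls. Value is the normalised response at dose 3.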

BT-474 [39] = experiment: as above; remark: listed apart in the source
Protocol: as §2

CAL-120 [40] = experiment: as above; remark: listed apart in the source
Protocol: as §2

HCC1599 [41] = experiment: as above; remark: listed apart in the source
Protocol: as §2

HDQ-P1 [42] = experiment: as above; remark: listed apart in the source
Protocol: as §2

Hs578T [43] = experiment: as above; remark: listed apart in the source
Protocol: as §2

CAL-51 [44] = experiment: as above; remark: listed apart in the source
Protocol: as §2

CAL-85-1 [45] = experiment: as above; remark: listed apart in the source
Protocol: as §2

MDA-MB-231 [46] = experiment: as above; remark: listed apart in the source
Protocol: as §2

CAL-148 [47] = experiment: as above; remark: listed apart in the source
Protocol: as §2

MCF-10A [48] = experiment: as above; remark: listed apart in the source
Protocol: as §2

BT-549 [49] = experiment: as above; remark: listed apart in the source
Protocol: as §2

DU-4475 [50] = experiment: as above; remark: listed apart in the source
Protocol: as §2

SK-BR-3 [51] = experiment: as above; remark: listed apart in the source
Protocol: as §2

HCC1143 [52] = experiment: as above; remark: listed apart in the source
Protocol: as §2

MDA-MB-468 [53] = experiment: as above; remark: listed apart in the source
Protocol: as §2

MDA-MB-436 [54] = experiment: as above; remark: listed apart in the source
Protocol: as §2

HCC1937 [55] = experiment: as above; remark: listed apart in the source
Protocol: as §2

MFM-223 [56] = experiment: as above; remark: listed apart in the source
Protocol: as §2

Row | Compound | normalised response (MDA-MB-453 [1]) [%] | normalised response (BT-474 [2]) [%] | normalised response (CAL-120 [3]) [%] | normalised response (HCC1599 [4]) [%] | normalised response (HDQ-P1 [5]) [%] | normalised response (Hs578T [6]) [%] | normalised response (CAL-51 [7]) [%] | normalised response (CAL-85-1 [8]) [%] | normalised response (MDA-MB-231 [9]) [%] | normalised response (CAL-148 [10]) [%] | normalised response (MCF-10A [11]) [%] | normalised response (BT-549 [12]) [%] | normalised response (DU-4475 [13]) [%] | normalised response (HCC1143 [14]) [%] | normalised response (MDA-MB-468 [15]) [%] | normalised response (MDA-MB-436 [16]) [%] | normalised response (HCC1937 [17]) [%] | normalised response (MFM-223 [18]) [%] | normalised response (MDA-MB-453 [19]) [%] | normalised response (BT-474 [20]) [%] | other results
1 | CN(C)C/C=C/C(=O)Nc1cc2c(Nc3ccc(F)c(Cl)c3)ncnc2cc1O[C@H]1CCOC1 [Afatinib] (100 nM) | 102 | 81.3 | 101 | 112 | 90.9 | 100 | 107 | 55.7 | 113 | 102 | 85.5 | 116 | 101 | 111 | 110 | 87 | 135 | 101 | 77.3 | 90.6 | normalised response (CAL-120 [21]): 92.9%; normalised response (HCC1599 [22]): 94.1%; normalised response (HDQ-P1 [23]): 64%; normalised response (Hs578T [24]): 108%; normalised response (CAL-51 [25]): 118%; normalised response (CAL-85-1 [26]): 65.9%; normalised response (MDA-MB-231 [27]): 103%; normalised response (CAL-148 [28]): 75.1%; normalised response (MCF-10A [29]): 32.4%; normalised response (BT-549 [30]): 98.5%; normalised response (DU-4475 [31]): 98.1%; normalised response (SK-BR-3 [32]): 27.5%; normalised response (HCC1143 [33]): 100%; normalised response (MDA-MB-468 [34]): 87.2%; normalised response (MDA-MB-436 [35]): 98%; normalised response (HCC1937 [36]): 89.8%; normalised response (MFM-223 [37]): 106%
2 | COc1cc(Nc2ncc3c(n2)-c2ccc(Cl)cc2C(c2c(F)cccc2OC)=NC3)ccc1C(=O)O [Alisertib] (1000 nM) | 110 | 96 | 96.9 | 96.6 | 78.2 | 96.3 | 17.4 | 93.3 | 69.1 | 53.8 | 108 | 76.9 | 92.2 | 85.8 | 8.1 | 73.5 | 122 | 89.1 | 140 | 70.9 | normalised response (CAL-120 [21]): 79.5%; normalised response (HCC1599 [22]): 82.6%; normalised response (HDQ-P1 [23]): 84.3%; normalised response (Hs578T [24]): 84.4%; normalised response (CAL-51 [25]): 56.5%; normalised response (CAL-85-1 [26]): 90.5%; normalised response (MDA-MB-231 [27]): 78%; normalised response (CAL-148 [28]): 62.6%; normalised response (MCF-10A [29]): 76.3%; normalised response (BT-549 [30]): 49.2%; normalised response (DU-4475 [31]): 67.6%; normalised response (SK-BR-3 [32]): 76%; normalised response (HCC1143 [33]): 71.3%; normalised response (MDA-MB-468 [34]): 27.2%; normalised response (MDA-MB-436 [35]): 62%; normalised response (HCC1937 [36]): 86.5%; normalised response (MFM-223 [37]): 56.4%
3 | CC(=O)O[C@]1(C(C)=O)CC[C@H]2[C@@H]3C=C(C)C4=CC(=O)CC[C@]4(C)[C@H]3CC[C@@]21C [Megestrol acetate] (1000 nM) | 105 | 97.6 | 101 | 96.8 | 106 | 98.8 | 115 | 104 | 110 | 104 | 103 | 108 | 99.1 | 116 | 141 | 57.4 | 58.1 | 101 | 95.8 | 111 | normalised response (CAL-120 [21]): 98.2%; normalised response (HCC1599 [22]): 111%; normalised response (HDQ-P1 [23]): 104%; normalised response (Hs578T [24]): 105%; normalised response (CAL-51 [25]): 124%; normalised response (CAL-85-1 [26]): 100%; normalised response (MDA-MB-231 [27]): 118%; normalised response (CAL-148 [28]): 92.4%; normalised response (MCF-10A [29]): 121%; normalised response (BT-549 [30]): 109%; normalised response (DU-4475 [31]): 102%; normalised response (SK-BR-3 [32]): 93.8%; normalised response (HCC1143 [33]): 103%; normalised response (MDA-MB-468 [34]): 95.4%; normalised response (MDA-MB-436 [35]): 101%; normalised response (HCC1937 [36]): 110%; normalised response (MFM-223 [37]): 96.6%
4 | CCN1CCN(c2ccc(Nc3cc(N(C)C(=O)Nc4c(Cl)c(OC)cc(OC)c4Cl)ncn3)cc2)CC1 [NVP-BGJ398] (100 nM) | 103 | 98.1 | 90.8 | 95.3 | 73 | 91 | 111 | 108 | 104 | 104 | 101 | 99.1 | 99.3 | 111 | 89.7 | 99.7 | 112 | 95.7 | 104 | 94.5 | normalised response (CAL-120 [21]): 84.7%; normalised response (HCC1599 [22]): 102%; normalised response (HDQ-P1 [23]): 101%; normalised response (Hs578T [24]): 95.8%; normalised response (CAL-51 [25]): 112%; normalised response (CAL-85-1 [26]): 97.3%; normalised response (MDA-MB-231 [27]): 96.1%; normalised response (CAL-148 [28]): 92.6%; normalised response (MCF-10A [29]): 103%; normalised response (BT-549 [30]): 94.3%; normalised response (DU-4475 [31]): 101%; normalised response (SK-BR-3 [32]): 97.5%; normalised response (HCC1143 [33]): 97.7%; normalised response (MDA-MB-468 [34]): 97.1%; normalised response (MDA-MB-436 [35]): 93.4%; normalised response (HCC1937 [36]): 98.8%; normalised response (MFM-223 [37]): 63.3%
5 | O=C(c1ccc(C(=O)N2CCC(N3CCCC3)CC2)c(Nc2ccccc2)c1)N1CCC(N2CCCC2)CC1 [UNC1215] (300 nM) | 100 | 101 | 101 | 93.7 |  |  | 77.2 | 98.7 | 90.9 | 104 | 86.4 | 94.4 | 101 | 93.9 | 129 | 65.3 | 85.9 |  |  |  | normalised response (MDA-MB-453 [38]): 104%; normalised response (BT-474 [39]): 98.3%; normalised response (CAL-120 [40]): 96.7%; normalised response (HCC1599 [41]): 93.2%; normalised response (HDQ-P1 [42]): 97.6%; normalised response (Hs578T [43]): 98%; normalised response (CAL-51 [44]): 62.6%; normalised response (CAL-85-1 [45]): 99.5%; normalised response (MDA-MB-231 [46]): 99.1%; normalised response (CAL-148 [47]): 93.6%; normalised response (MCF-10A [48]): 94.5%; normalised response (BT-549 [49]): 96.7%; normalised response (DU-4475 [50]): 99.5%; normalised response (SK-BR-3 [51]): 94%; normalised response (HCC1143 [52]): 95%; normalised response (MDA-MB-468 [53]): 90%; normalised response (MDA-MB-436 [54]): 99.7%; normalised response (HCC1937 [55]): 92.7%; normalised response (MFM-223 [56]): 97.7%

Reference: the supplement of paper PMC4862054
